Among the data in ChEMBL document CHEMBL1145599, “A novel pyrene-guanidiniocarbonyl-pyrrole cation efficiently differentiates between ds-DNA and ds-RNA by two independent, sensitive spectroscopic methods” (Bioorg Med Chem Lett, 2008) are log K and ΔTm values, retold here.

The nature of assay [1]: Binding affinity to polydA-polydT DNA by thermal denaturation assay.
The test system of a further assay is DNA. Kind of assay: Binding affinity to calf thymus DNA by thermal denaturation assay. The assay is classed as nucleic-acid assay. Particulars: Bos taurus.
The test system of assay [2] is Nucleic Acid. Kind of assay: Binding affinity to polyA-polyU double stranded RNA by thermal denaturation assay. The assay is classed as nucleic-acid assay.
Assay [3] concerns Nucleic Acid. Kind of assay: Binding affinity to polyG-polyC double stranded RNA by thermal denaturation assay. It is filed as nucleic-acid assay.

As for `N=C(N)NC(=O)c1ccc(C(=O)NCCCCNC(=O)c2ccc3ccc4cccc5ccc2c3c45)[nH]1`, the log K (in assay [1]; with DNA; in the assay on Nucleic Acid [2]; in the assay with Nucleic Acid [3]) was 5.1 throughout. The ΔTm (commonly the shift of the melting midpoint relative to a reference) was 7.3 °C in the assay with DNA and -1.5 °C with Nucleic Acid [2].
